Legend:
Type in all cases: functional, cell-based
[1] = system: A2780; assay: The compound was evaluated for the cytotoxicity against human A2780 (ovarian) tumor cell lines.
[2] = system: A2780cisR; assay: The compound was evaluated for the cytotoxicity against human A2780cisR (ovarian) tumor cell lines.
[3] = system: CH1; assay: The compound was evaluated for the cytotoxicity against human CH1 (ovarian) tumor cell lines.
[4] = system: SK-OV-3; assay: The compound was evaluated for the cytotoxicity against human SKOV-3 (ovarian) tumor cell lines.
[5] = system: HT-29; assay: The compound was evaluated for the cytotoxicity against human HT-29 (colon) tumor cell lines.

| Compound | IC50 [1] | IC50 ([2]; Homo sapiens, A2780cisR) | IC50 [3] | IC50 [4] | IC50 ([5]; Homo sapiens, HT-29) | IC50 ([2]; a2780cisr) | IC50 ([5]; ht-29) |
| --- | --- | --- | --- | --- | --- | --- | --- |
| CCOC(=O)CNC(=O)[C@@H](OC(=O)c1cc(OC)cc2c(C)cccc12)[C@]1(C)CO1 | 340 nM | 830 nM | 260 nM | 7.3 µM | 2250 nM | – | – |
| CCOc1cc(C(=O)O[C@H](C(N)=O)[C@]2(C)CO2)c2cccc(C)c2c1 | 1800 nM | 3500 nM | 1400 nM | 12 µM | 4300 nM | – | – |
| COc1cc(C(=O)O[C@H](C(N)=O)[C@@]2(C)CO2)c2cccc(C)c2c1 | 58 nM | 155 nM | 62 nM | 2.3 µM | 610 nM | – | – |
| C[C@@]1([C@H](OC(=O)c2cccc3ccccc23)C(N)=O)CO1 | 440 nM | 1100 nM | 550 nM | 5.1 µM | 2150 nM | – | – |
| C[C@@]1([C@H](OC(=O)c2ccc3ccccc3c2)C(N)=O)CO1 | 390 nM | 1350 nM | 170 nM | 13 µM | 2600 nM | – | – |
| C[C@@]1([C@H](OC(=O)c2ccccc2)C(N)=O)CO1 | 20500 nM | > 25000 nM | > 25000 nM | > 25 µM | > 25000 nM | – | – |
| C[C@@]1([C@H](OC(=O)c2cnc3ccccc3n2)C(N)=O)CO1 | > 25000 nM | > 25000 nM | > 25000 nM | > 25 µM | > 25000 nM | – | – |
| COc1cc(C(=O)O[C@H](C(N)=O)[C@]2(C)CO2)c2cccc(C)c2c1 | < 50 nM | 76 nM | < 50 nM | 1.25 µM | 330 nM | – | – |
| CC1([C@H](OC(=O)c2cccc3ccccc23)C(N)=O)CC1 | > 25000 nM | > 25000 nM | > 25000 nM | > 25 µM | > 25000 nM | – | – |
| CCOC(=O)[C@@H](NC(=O)[C@@H](OC(=O)c1ccc(C)c2cc(OC)ccc12)[C@]1(C)CO1)C(C)C | 350 nM | 560 nM | 315 nM | 2.95 µM | 2250 nM | – | – |
| CO[C@@]12[C@H](COC(N)=O)C3=C(C(=O)C(C)=C(N)C3=O)N1C[C@@H]1N[C@@H]12 [MITOMYCIN] | 50 nM | 60 nM | 40 nM | 0.2 µM | 40 nM | – | – |
| CISPLATIN | – | – | – | – | – | 3000 nM | 1700 nM |
